Calls of active or inactive are those of the source.
Columns and labels:
Kallikrein-7 = Kallikrein-7 (Homo sapiens, UniProt P49862); experiment: Fluorescence Intensity-based biochemical primary high throughput dose response assay to identify activators of kallikrein-7 (K7) zymogen.
[1] = target: Voltage-gated inwardly rectifying potassium channel KCNH2 (Homo sapiens, UniProt Q12809); experiment: hERG protection from proarrhythmic block, potency, dose response, cell-based, thallium flux (AID 2121); format: ADME
fMet-Leu-Phe receptor = target: T1, fMet-Leu-Phe receptor (Homo sapiens, UniProt P21462); experiment: FPR ligands, dose response (AID 519); format: functional
T1 sequence (P21462 whole entry): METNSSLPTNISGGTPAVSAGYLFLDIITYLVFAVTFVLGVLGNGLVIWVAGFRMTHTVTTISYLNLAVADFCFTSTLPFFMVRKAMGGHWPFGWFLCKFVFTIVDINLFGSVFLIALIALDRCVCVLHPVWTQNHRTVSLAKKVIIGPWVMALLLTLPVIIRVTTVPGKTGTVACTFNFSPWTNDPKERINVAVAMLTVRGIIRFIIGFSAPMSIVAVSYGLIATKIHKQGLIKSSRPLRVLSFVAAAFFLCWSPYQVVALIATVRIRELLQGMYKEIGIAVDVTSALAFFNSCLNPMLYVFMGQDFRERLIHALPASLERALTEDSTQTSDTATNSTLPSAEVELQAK

[2] = target: T2, Replicative DNA helicase DnaB (Mycobacterium tuberculosis, UniProt P9WMR3); experiment: DnaB intein splicing inhibitors, dose response, biochemical, cell-free fluorescence (AID 449749); format: functional
T2 sequence (P9WMR3 whole entry): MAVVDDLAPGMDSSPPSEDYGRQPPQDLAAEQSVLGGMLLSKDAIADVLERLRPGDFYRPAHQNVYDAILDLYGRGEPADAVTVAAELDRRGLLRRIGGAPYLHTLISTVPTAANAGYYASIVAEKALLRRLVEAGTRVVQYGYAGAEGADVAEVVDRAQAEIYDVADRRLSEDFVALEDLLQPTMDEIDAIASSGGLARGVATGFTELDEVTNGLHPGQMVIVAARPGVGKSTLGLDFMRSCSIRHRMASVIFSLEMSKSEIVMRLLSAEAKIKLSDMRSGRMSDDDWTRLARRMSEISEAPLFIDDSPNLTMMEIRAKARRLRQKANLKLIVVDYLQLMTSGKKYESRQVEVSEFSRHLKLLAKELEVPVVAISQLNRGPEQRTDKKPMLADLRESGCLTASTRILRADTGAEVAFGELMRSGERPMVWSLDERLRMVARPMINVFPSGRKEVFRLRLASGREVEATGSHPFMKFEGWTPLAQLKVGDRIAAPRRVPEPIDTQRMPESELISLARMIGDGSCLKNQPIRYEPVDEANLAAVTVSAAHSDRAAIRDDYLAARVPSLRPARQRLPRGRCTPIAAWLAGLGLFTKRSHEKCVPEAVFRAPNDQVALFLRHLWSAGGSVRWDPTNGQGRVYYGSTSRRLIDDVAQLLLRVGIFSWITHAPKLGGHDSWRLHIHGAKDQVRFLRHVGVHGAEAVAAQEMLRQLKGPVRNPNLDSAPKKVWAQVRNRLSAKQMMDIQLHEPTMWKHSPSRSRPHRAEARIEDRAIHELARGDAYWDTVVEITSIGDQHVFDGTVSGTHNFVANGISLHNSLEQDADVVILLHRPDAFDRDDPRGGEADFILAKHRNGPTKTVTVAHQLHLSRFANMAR

Protein RecA = target: T3, Protein RecA (Mycobacterium tuberculosis, UniProt P9WHJ3); experiment: Fluorescence Cell-Free Homogeneous Dose Retest to Identify Inhibitors of RecA-Intein Splicing Activity. [Related pubchem assays (depositor defined):AID2097, AID2223, AID489010, AID492950]; format: functional
T3 sequence (P9WHJ3 whole entry): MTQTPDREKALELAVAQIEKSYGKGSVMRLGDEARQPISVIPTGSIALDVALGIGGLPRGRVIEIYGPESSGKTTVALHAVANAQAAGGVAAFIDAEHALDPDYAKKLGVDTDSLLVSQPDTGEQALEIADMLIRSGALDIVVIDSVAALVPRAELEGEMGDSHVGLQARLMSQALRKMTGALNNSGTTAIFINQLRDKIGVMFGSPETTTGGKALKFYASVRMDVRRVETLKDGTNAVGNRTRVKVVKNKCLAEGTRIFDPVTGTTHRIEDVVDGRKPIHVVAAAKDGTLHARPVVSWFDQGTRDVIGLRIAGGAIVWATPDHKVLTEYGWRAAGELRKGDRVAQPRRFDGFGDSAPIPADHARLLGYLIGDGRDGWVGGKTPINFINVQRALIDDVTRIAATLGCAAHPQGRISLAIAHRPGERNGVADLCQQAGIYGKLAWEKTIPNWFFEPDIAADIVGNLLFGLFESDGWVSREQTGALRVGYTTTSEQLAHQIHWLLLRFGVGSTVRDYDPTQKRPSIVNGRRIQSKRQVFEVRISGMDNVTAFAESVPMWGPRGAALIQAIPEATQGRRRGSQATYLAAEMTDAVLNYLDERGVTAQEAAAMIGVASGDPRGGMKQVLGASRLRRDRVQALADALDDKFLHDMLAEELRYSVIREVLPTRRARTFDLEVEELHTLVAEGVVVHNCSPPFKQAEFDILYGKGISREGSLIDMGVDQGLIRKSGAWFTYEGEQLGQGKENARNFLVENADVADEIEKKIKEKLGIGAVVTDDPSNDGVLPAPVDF

[3] = tested on: Streptococcus sp. 'group A'; experiment: growth inhibition of control SK(-) GAS strain, dose response, counter-screen for streptokinase expression inhibitor project, luminescence, kanamycin, BacTiterGlo, confirmation (AID 1900); format: functional, organism-based
Streptokinase A = target: T4, Streptokinase A (Streptococcus pyogenes serotype M1, UniProt P10520); experiment: S. pyogenes streptokinase expression inhibitors, potency, dose response, plasminogen activation absorbance, OD405 (AID 1914); format: functional, Streptococcus pyogenes M1 GAS;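 further: secreted streptokinase activity via plasminogen activation per viability signal from cell pellet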
T4 sequence (P10520 whole entry): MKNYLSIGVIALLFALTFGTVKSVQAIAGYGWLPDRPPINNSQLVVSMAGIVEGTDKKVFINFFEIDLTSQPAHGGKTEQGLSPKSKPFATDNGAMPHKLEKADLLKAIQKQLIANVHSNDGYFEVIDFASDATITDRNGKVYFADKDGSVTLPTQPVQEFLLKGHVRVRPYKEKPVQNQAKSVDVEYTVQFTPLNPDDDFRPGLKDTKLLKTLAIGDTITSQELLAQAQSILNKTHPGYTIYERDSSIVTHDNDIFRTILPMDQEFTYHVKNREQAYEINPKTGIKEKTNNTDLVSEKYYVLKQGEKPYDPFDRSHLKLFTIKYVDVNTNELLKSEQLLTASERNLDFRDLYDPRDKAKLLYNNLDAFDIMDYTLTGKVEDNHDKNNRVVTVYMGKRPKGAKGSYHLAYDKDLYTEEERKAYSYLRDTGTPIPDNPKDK

Streptococcus = experiment: Group A Streptococcus viability loss, dose response, counter-screen for streptokinase expression inhibitor project, luminescence, BacTiterGlo (AID 1915); format: functional, organism-based;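 further: potency for reduction of bacterial viability or growth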
[4] = target: Eukaryotic translation initiation factor 4E (Mus musculus, UniProt P63073); experiment: eIF4E–eIF4G protein interaction inhibitors, dose response, biochemical, TR-FRET (AID 855); format: functional;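 further: potency for disrupting eIF4E binding to eIF4GI seen as loss of FRET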
HEK293 = experiment: inhibitors of LMP1-driven NF-kB reporter, dose response, cell-based, HEK293, luciferase, cherry-pick (AID 588343); format: functional; conditions: Homo sapiens
[5] = A549 cell cytotoxicity, dose response, cytotoxicity control, plate reader, cherry-pick, antagonist series (AID 743412); format: functional, cell-based
[6] = HepG2 cell cytotoxicity, dose response, cytotoxicity control, plate reader, cherry-pick, antagonist series (AID 743416); format: functional, cell-based
[7] = LGR2 antagonists, dose response, cell-based, HEK293, CRE-luciferase reporter, cherry pick, set 2 (AID 743343); format: functional;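 further: transfected cells were stimulated with diluted bursicon conditioned medium after compound addition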
[8] = MC4R antagonists, dose response, counter-screen for LGR2 antagonist project, cell-based, plate reader, cherry pick (AID 743444); format: functional;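 further: transfected HEK 293 cells stimulated with alpha-MSH peptide; potency of inhibitors of the alpha-MSH evoked signal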
[9] = ADAM10 inhibitors, peptide cleavage, dose response, biochemical, QFRET (AID 743254);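 further: ADAM10 enzyme with the DM2 quenched FRET peptide as substrate; EDANS fluorescence gain as the protease cuts the substrate; inhibitor potency against ADAM10 proteolytic activity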
[10] = target: Disintegrin and metalloproteinase domain-containing protein 17 (Homo sapiens, UniProt P78536); experiment: ADAM17 protease inhibitors, dose response, counter-screen for ADAM10 exosite inhibitor project, biochemical, quenched FRET substrate (AID 743253)
Sequence of Disintegrin and metalloproteinase domain-containing protein 17 (P78536 whole entry, the tested form may be a part): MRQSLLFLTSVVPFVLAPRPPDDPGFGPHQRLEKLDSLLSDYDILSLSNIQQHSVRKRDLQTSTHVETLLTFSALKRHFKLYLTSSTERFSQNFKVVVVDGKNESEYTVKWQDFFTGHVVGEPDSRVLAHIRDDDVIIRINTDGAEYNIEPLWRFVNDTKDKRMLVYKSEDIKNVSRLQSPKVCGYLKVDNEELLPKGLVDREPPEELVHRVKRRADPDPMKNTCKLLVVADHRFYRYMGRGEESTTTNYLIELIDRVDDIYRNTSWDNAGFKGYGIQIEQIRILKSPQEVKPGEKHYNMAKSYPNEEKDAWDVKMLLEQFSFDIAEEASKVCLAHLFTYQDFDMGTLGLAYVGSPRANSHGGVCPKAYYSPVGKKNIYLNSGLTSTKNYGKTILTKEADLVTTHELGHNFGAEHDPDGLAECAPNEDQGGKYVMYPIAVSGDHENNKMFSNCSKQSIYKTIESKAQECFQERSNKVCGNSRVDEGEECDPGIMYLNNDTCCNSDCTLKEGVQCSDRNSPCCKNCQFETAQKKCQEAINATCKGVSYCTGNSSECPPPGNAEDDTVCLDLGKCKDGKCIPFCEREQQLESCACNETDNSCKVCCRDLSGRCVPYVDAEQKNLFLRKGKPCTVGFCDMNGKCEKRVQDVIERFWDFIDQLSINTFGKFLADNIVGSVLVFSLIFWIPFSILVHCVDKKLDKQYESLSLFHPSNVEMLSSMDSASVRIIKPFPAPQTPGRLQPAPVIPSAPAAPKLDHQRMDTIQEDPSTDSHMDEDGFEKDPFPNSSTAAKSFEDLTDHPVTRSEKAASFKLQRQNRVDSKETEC

Sequence of Kallikrein-7 (P49862 whole entry): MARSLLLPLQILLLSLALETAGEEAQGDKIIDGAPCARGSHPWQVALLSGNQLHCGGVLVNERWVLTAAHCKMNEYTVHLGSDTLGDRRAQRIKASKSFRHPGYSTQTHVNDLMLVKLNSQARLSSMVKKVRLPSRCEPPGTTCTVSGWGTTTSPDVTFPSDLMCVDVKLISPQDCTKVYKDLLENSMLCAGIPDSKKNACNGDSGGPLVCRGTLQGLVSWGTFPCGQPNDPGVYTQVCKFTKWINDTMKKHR
Sequence of Voltage-gated inwardly rectifying potassium channel KCNH2 (Q12809 whole entry): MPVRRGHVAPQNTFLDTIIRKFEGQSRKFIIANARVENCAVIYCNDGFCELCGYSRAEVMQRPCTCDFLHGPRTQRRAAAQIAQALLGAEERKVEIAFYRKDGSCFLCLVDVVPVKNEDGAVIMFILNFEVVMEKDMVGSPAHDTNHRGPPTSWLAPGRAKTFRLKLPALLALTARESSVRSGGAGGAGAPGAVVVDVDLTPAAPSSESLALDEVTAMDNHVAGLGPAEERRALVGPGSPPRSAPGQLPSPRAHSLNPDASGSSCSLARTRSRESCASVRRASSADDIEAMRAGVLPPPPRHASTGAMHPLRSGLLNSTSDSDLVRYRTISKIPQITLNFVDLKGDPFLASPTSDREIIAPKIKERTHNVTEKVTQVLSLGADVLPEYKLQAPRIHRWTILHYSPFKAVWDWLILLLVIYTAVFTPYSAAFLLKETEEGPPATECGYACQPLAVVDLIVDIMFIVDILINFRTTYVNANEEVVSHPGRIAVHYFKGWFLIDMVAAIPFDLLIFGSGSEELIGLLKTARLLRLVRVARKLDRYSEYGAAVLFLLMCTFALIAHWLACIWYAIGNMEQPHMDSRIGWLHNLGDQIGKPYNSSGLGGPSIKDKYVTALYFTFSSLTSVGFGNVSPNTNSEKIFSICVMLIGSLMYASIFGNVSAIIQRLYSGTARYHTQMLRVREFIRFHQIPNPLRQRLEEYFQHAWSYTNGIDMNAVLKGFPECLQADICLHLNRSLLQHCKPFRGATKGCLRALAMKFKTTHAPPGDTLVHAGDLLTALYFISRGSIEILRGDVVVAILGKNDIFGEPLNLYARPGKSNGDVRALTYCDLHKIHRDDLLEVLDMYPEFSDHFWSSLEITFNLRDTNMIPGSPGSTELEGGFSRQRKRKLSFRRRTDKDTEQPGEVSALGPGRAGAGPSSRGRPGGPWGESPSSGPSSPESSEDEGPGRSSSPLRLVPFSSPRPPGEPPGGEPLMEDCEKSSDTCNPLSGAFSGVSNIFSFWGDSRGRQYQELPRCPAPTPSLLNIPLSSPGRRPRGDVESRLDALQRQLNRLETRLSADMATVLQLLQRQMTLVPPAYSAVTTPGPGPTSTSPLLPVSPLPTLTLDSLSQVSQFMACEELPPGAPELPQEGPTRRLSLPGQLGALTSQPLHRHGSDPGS
Sequence of Eukaryotic translation initiation factor 4E (P63073 whole entry): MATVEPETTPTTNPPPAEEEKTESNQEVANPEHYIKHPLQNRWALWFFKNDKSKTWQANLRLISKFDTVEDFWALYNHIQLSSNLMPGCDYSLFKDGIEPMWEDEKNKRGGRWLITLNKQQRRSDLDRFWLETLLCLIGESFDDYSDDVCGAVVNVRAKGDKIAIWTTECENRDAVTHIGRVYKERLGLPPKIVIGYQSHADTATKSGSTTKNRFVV

In the case of N=c1c(C(=O)NCC2CCCO2)cc2c(=O)n3ccccc3nc2n1C1CCCC1 (stereo not drawn), the EC50 (Kallikrein-7) is reported as 24.4 µM (inactive).

For CCN(CC)C(=S)NC(=O)c1ccc(OC)c(Br)c1, the EC50 [1] was 0.66 µM (active).

With COc1cc(C2C(C(=O)c3ccc(C)o3)=C(O)C(=O)N2Cc2cccnc2)ccc1O (stereo not drawn) the Ki (fMet-Leu-Phe receptor) was > 66.7 µM (inactive).

In the case of CSCCC1C(C#N)=C(N)Oc2[nH]nc(-c3cccs3)c21 (stereo not drawn), the AC50 [2] is reported as 3.12 µM (active), the EC50 (Protein RecA) is reported as 1.43 µM (active) and the Ki (fMet-Leu-Phe receptor) is reported as > 66.7 µM (inactive).

With Nc1ccc2[nH]c(-c3cc(Cl)c(N)c(Cl)c3)nc2c1 the EC50 [3] was 42.8 µM (active), the EC50 (Streptokinase A) was > 150 µM (not active) and the EC50 (Streptococcus) was > 150 µM (not active). For the same molecule, the IC50 [4] was > 64 µM (inactive) and the EC50 (Kallikrein-7) was > 69.5 µM (inactive).

For Cc1ccc(C(=O)NCCc2cccs2)cc1, the AC50 (HEK293) was 2.28 µM (active), the AC50 [5] was > 52 µM (inactive) and the AC50 [6] was > 52 µM (inactive). The AC50 [7] was 3.13 µM (active) and the AC50 [8] was 3.74 µM (active).

With N#Cc1c(NC(=O)CCn2cnc3ccccc3c2=O)oc(-c2ccccc2)c1-c1ccccc1 the IC50 [9] was > 69.5 µM (inactive) and the IC50 [10] was > 69.5 µM (inactive).

From ChEMBL document CHEMBL1201862, “PubChem BioAssay data set” (2004)
